Measured values taken from patent US7462629B2, “Immunosuppressant compounds and compositions” (IRM LLC, priority 2003, dated 2008).

Experiments:
blood lymphocytes = assay: Measurement of circulating lymphocytes (blood lymphocyte depletion); type: in vivo, Mice (C57bl/6 male); details: Mus musculus, mice, oral gavage, blood collected 6 and 24 hours after administration, read-out: ED50 (effective dose for 50% of blood lymphocyte depletion)
Method: C. In Vivo: Screening Assays for Measurement of Blood Lymphocyte Depletion and Assessment of Heart Effect
Measurement of circulating lymphocytes: Compounds are dissolved in DMSO and diluted to obtain a final concentration of 4% DMSO (v/v, final concentration) and then further diluted in a constant volume of Tween80 25%/H2O, v/v. Tween80 25%/H2O (200 μl), 4% DMSO, and FTY720 (10 μg) are included as negative and positive controls, respectively. Mice (C57bl/6 male, 6-10 week-old) are administered 250-300 μL of compound solution orally by gavages under short isoflurane anesthesia.
Blood is collected from the retro-orbital sinus 6 and 24 hours after drug administration under short isoflurane anesthesia. Whole blood samples are subjected to hematology analysis. Peripheral lymphocyte counts are determined using an automated analyzer. Subpopulations of peripheral blood lymphocytes are stained by fluorochrome-conjugated specific antibodies and analyzed using a fluorescent activating cell sorter (Facscalibur). Two mice are used to assess the lymphocyte depletion activity of each compound screened. The result is an ED50, which is defined as the effective dose required displaying 50% of blood lymphocyte depletion.

[1] = system: EDG-3, EDG-5, EDG-6 and EDG-8; assay: EDG-3, -5, -6 and -8 GTP [γ-35S] binding assays (selectivity versus EDG-1); type: biochemical, human
Method: (§1) A. In Vitro: GPCR Activation Assay Measuring GTP [γ-^35S] Binding to Membranes Prepared from CHO Cells Expressing Human EDG Receptors
For each membrane preparation, titration experiments are first run with S1P control to determine the optimal amount of membranes to be added per assay well. […] For example, 3-[6-(4-cyclohexyl-3-trifluoromethyl-benzyloxy)-3,4-dihydro-1H-isoquinolin-2-yl]-propionic acid (compound 9) has an EC50 of 0.2 nM in the above assay and is at least 1000 fold selective for EDG-1 compared to one or more of the other receptors including EDG-3, EDG-5, EDG-6 and EDG-8.

human EDG-1 = target: T1, human EDG-1 (Homo sapiens, UniProt P21453); assay: EDG-1 (S1P1) GTP [γ-35S] binding assay, membranes from CHO cells; type: biochemical; details: CHO membranes expressing human EDG-1
T1 construct: expressed in transfected cells
T1 sequence (P21453 whole entry): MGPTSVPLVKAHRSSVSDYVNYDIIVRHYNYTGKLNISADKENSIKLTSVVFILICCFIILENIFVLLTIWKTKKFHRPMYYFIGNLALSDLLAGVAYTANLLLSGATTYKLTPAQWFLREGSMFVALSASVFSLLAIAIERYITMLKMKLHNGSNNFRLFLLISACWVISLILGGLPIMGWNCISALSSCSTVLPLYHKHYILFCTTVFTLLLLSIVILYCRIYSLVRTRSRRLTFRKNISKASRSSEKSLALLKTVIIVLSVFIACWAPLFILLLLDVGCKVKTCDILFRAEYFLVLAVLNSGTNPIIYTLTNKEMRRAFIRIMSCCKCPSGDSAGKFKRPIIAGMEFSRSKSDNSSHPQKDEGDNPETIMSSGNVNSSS
Method: as §1
EDG-1 (S1P1) GTP [γ-^35S] binding assay: Homogenized membranes are prepared from CHO cell clones stably expressing a human EDG-1 N-terminal c-myc tag. Cells are grown in suspension in two 850 cm^2 roller bottles for three or fours days before harvesting. The cells are centrifuged down, washed once with cold PBS, and resuspended in ≦20 ml of Buffer A (20 mM HEPES, pH 7.4, 10 mM EDTA, EDTA-free complete protease inhibitor cocktail [1 tablet/25 ml]). The cell suspension is homogenized on ice, using a Polytron homogenizer at 30000 rpm at three intervals of 15 seconds each. The homogenate is first centrifuged at 2000 rpm on a tabletop low speed centrifuge for 10 minutes. The supernatant, after passing through a cell strainer, is then re-centrifuged at 50,000×g for 25 minutes at 4° C. The pellet is resuspended into buffer B (15% glycerol, 20 mM HEPES, pH 7.4, 0.1 mM EDTA, EDTA-free complete protease inhibitor cocktail [1 tablet/10 ml]). Protein concentration of the prep is determined using the BCA Protein Assay kit (Pierce) using BSA as standard. The membranes are aliquoted and kept frozen at −80° C.
Solutions of test compounds ranging from 10 mM to 0.01 nM are prepared in DMSO. S1P is diluted in 4% BSA solution as positive controls. […]

- selectivity for EDG-1 compared to one or more of EDG-3, EDG-5, EDG-6 and EDG-8 [1]: at least 1000 fold
- EC50 (human EDG-1): 0.2 nM
SMILES: O=C(O)CCN1CCc2cc(OCc3ccc(C4CCCCC4)c(C(F)(F)F)c3)ccc2C1 [Compound 9, 3-[6-(4-cyclohexyl-3-trifluoromethyl-benzyloxy)-3,4-dihydro-1H-isoquinolin-2-yl]-propionic acid]
- ED50 (blood lymphocytes): 0.2 mg/kg
